Source: patent US20050009840A1 (SUGEN, INC., priority 2003, published 2005)

These molecules were tested against T1, Met kinase domain (GST fusion protein) (Homo sapiens, UniProt P08581) (assay: Met transphosphorylation assay (ELISA, poly(glu-tyr) substrate)). Settings: Table 2; read-out: Met IC50.
T1 construct: Purified GST fusion protein containing the Met kinase domain
Format: biochemical
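Note: Cell-free ELISA with plate-bound poly(Glu:Tyr 4:1) phosphorylated by GST-fused Met kinase domain plus ATP and Mn2+, phosphotyrosine detected by anti-phosphotyrosine antibody with HRP and ABTS read-out.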

T1 sequence (P08581 1078-1345 limits assumed): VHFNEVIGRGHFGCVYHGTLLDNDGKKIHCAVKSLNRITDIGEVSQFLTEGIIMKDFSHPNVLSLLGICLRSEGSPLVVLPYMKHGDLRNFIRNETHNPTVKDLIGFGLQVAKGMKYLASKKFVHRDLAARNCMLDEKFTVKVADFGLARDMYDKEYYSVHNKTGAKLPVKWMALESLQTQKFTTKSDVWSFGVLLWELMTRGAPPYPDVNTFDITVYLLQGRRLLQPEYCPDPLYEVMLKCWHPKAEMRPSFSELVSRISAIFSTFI

SMILES	IC50 [nM]
CC(Oc1cc(-c2ccc(C(=O)N3CCN(C)CC3)cc2)cnc1N)c1c(Cl)ccc(F)c1Cl (stereo not drawn) [Example I-295, (4-{6-Amino-5-[1-(2,6-dichloro-3-fluoro-phenyl)-ethoxy]-pyridin-3-yl}-phenyl)-(4-methyl-piperazin-1-yl)-methanone]	79
CC(Oc1cc(-c2ccc(C(=O)NCCCN3CCCC3)cc2)cnc1N)c1c(Cl)ccc(F)c1Cl (stereo not drawn) [Example I-301, 4-{6-Amino-5-[1-(2,6-dichloro-3-fluoro-phenyl)-ethoxy]-pyridin-3-yl}-N-(3-pyrrolidin-1-yl-propyl)-benzamide]	64
CC(Oc1cc(-c2ccc(C(=O)NCCN3CCOCC3)cc2)cnc1N)c1c(Cl)ccc(F)c1Cl (stereo not drawn) [Example I-302, 4-{6-Amino-5-[1-(2,6-dichloro-3-fluoro-phenyl)-ethoxy]-pyridin-3-yl}-N-(2-morpholin-4-yl-ethyl)-benzamide]	71
CC(Oc1cc(-c2ccc(C(=O)N3CC[C@@H](N)C3)cc2)cnc1N)c1c(Cl)ccc(F)c1Cl (stereo partly drawn) [Example I-304, (4-{6-Amino-5-[1-(2,6-dichloro-3-fluoro-phenyl)-ethoxy]-pyridin-3-yl}-phenyl)-((R)-3-amino-pyrrolidin-1-yl)-methanone]	72
CC(Oc1cc(-c2ccc(C(=O)N3CCC(N)CC3)cc2)cnc1N)c1c(Cl)ccc(F)c1Cl (stereo not drawn) [Example I-305, (4-{6-Amino-5-[1-(2,6-dichloro-3-fluoro-phenyl)-ethoxy]-pyridin-3-yl}-phenyl)-(4-amino-piperidin-1-yl)-methanone]	180
CC(Oc1cc(-c2ccc(C(=O)N3CC[C@H](O)C3)cc2)cnc1N)c1c(Cl)ccc(F)c1Cl (stereo partly drawn) [Example I-306, (4-{6-Amino-5-[1-(2,6-dichloro-3-fluoro-phenyl)-ethoxy]-pyridin-3-yl}-phenyl)-((S)-3-hydroxy-pyrrolidin-1-yl)-methanone]	24
CC(Oc1cc(-c2ccc(C(=O)N3CC[C@@H](O)C3)cc2)cnc1N)c1c(Cl)ccc(F)c1Cl (stereo partly drawn) [Example I-307, (4-{6-Amino-5-[1-(2,6-dichloro-3-fluoro-phenyl)-ethoxy]-pyridin-3-yl}-phenyl)-((R)-3-hydroxy-pyrrolidin-1-yl)-methanone]	22
CC(Oc1cc(-c2ccc(C(=O)N3CCC[C@@H]3CO)cc2)cnc1N)c1c(Cl)ccc(F)c1Cl (stereo partly drawn) [Example I-308, (4-{6-Amino-5-[1-(2,6-dichloro-3-fluoro-phenyl)-ethoxy]-pyridin-3-yl}-phenyl)-((R)-2-hydroxymethyl-pyrrolidin-1-yl)-methanone]	33
CCN(CC)CCNC(=O)c1ccc(-c2cnc(N)c(OC(C)c3c(Cl)ccc(F)c3Cl)c2)cc1 (stereo not drawn) [Example I-309, 4-{6-Amino-5-[1-(2,6-dichloro-3-fluoro-phenyl)-ethoxy]-pyridin-3-yl}-N-(2-diethylamino-ethyl)-benzamide]	40
CC(Oc1cc(-c2cccc(C(=O)N3CCN(C)CC3)c2)cnc1N)c1c(Cl)ccc(F)c1Cl (stereo not drawn) [Example I-312]	62
CC(Oc1cc(-c2cccc(C(=O)N3CCC[C@H]3CN3CCCC3)c2)cnc1N)c1c(Cl)ccc(F)c1Cl (stereo partly drawn) [Example I-314, (3-{6-Amino-5-[1-(2,6-dichloro-3-fluoro-phenyl)-ethoxy]-pyridin-3-yl}-phenyl)-((S)-2-pyrrolidin-1-ylmethyl-pyrrolidin-1-yl)-methanone]	60
CC(=O)N1CCN(CCNC(=O)c2cccc(-c3cnc(N)c(OC(C)c4c(Cl)ccc(F)c4Cl)c3)c2)CC1 (stereo not drawn) [Example I-315, N-[2-(4-Acetyl-piperazin-1-yl)-ethyl]-3-{6-amino-5-[1-(2,6-dichloro-3-fluoro-phenyl)-ethoxy]-pyridin-3-yl}-benzamide]	69
CC(Oc1cc(-c2cccc(C(=O)N3CCC[C@@H]3CN3CCCC3)c2)cnc1N)c1c(Cl)ccc(F)c1Cl (stereo partly drawn) [Example I-318, (3-{6-Amino-5-[1-(2,6-dichloro-3-fluoro-phenyl)-ethoxy]-pyridin-3-yl}-phenyl)-((R)-2-pyrrolidin-1-ylmethyl-pyrrolidin-1-yl)-methanone]	130
CC(Oc1cc(-c2cccc(C(=O)N3CCC(N4CCCC4)CC3)c2)cnc1N)c1c(Cl)ccc(F)c1Cl (stereo not drawn) [Example I-322, (3-{6-Amino-5-[1-(2,6-dichloro-3-fluoro-phenyl)-ethoxy]-pyridin-3-yl}-phenyl)-(4-pyrrolidin-1-yl-piperidin-1-yl)-methanone]	71

Next, values leading:

IC50 [nM]	SMILES
1700	Nc1ncc(-c2cccc(NS(=O)(=O)CCN3CC[C@@H](CO)C3)c2)cc1OCc1c(F)ccc(F)c1Cl [Example I-261, 2-[(3R)-3-Hydroxymethyl-pyrrolidin-1-yl]-ethanesulfonic acid {3-[6-amino-5-(2-chloro-3,6-difluoro-benzyloxy)-pyridin-3-yl]-phenyl}-amide]
1500	Nc1ncc(-c2cccc(NS(=O)(=O)CCN3CCC(O)CC3)c2)cc1OCc1c(F)ccc(F)c1Cl [Example I-262, 2-(4-Hydroxy-piperidin-1-yl)-ethanesulfonic acid {3-[6-amino-5-(2-chloro-3,6-difluoro-benzyloxy)-pyridin-3-yl]-phenyl}-amide]
1140	Nc1ncc(-c2cccc(NS(=O)(=O)CCN3CCN(C(=O)CO)CC3)c2)cc1OCc1c(F)ccc(F)c1Cl [Example I-263, 2-[4-(2-Hydroxy-acetyl)-piperazin-1-yl]-ethanesulfonic acid {3-[6-amino-5-(2-chloro-3,6-difluoro-benzyloxy)-pyridin-3-yl]-phenyl}-amide]
1100	Nc1ncc(-c2cccc(NS(=O)(=O)CCN3CC[C@@H](O)C3)c2)cc1OCc1c(F)ccc(F)c1Cl [Example I-264, 2-[(3R)-3-Hydroxy-pyrrolidin-1-yl]-ethanesulfonic acid {3-[6-amino-5-(2-chloro-3,6-difluoro-benzyloxy)-pyridin-3-yl]-phenyl}-amide]
1000	Nc1ncc(-c2cccc(NS(=O)(=O)CCNCC3CC3)c2)cc1OCc1c(F)ccc(F)c1Cl [Example I-265, 2-(Cyclopropylmethyl-amino)-ethanesulfonic acid {3-[6-amino-5-(2-chloro-3,6-difluoro-benzyloxy)-pyridin-3-yl]-phenyl}-amide]
900	Nc1ncc(-c2cccc(NS(=O)(=O)CCNC3CC3)c2)cc1OCc1c(F)ccc(F)c1Cl [Example I-266, 2-Cyclopropylamino-ethanesulfonic acid {3-[6-amino-5-(2-chloro-3,6-difluoro-benzyloxy)-pyridin-3-yl]-phenyl}-amide]
4000	Nc1ncc(-c2cccc(N3CCCC3)c2)cc1OCc1c(F)ccc(F)c1Cl [Example I-268, 3-(2-Chloro-3,6-difluoro-benzyloxy)-5-(3-pyrrolidin-1-yl-phenyl)-pyridin-2-ylamine; compound with trifluoro-acetic acid]
180	CC(Oc1cc(-c2ccc(NS(=O)(=O)CCN3CCCCC3)cc2)cnc1N)c1c(F)ccc(F)c1Cl (stereo not drawn) [Example I-286, 2-Piperidin-1-yl-ethanesulfonic acid (4-{6-amino-5-[1-(2-cloro-3,6-difluoro-phenyl)-ethoxy]-pyridin-3-yl}-phenyl)-amide]
140	CC(Oc1cc(-c2ccc(NS(=O)(=O)CCN3CCC(O)CC3)cc2)cnc1N)c1c(F)ccc(F)c1Cl (stereo not drawn) [Example I-287, 2-(4-Hydroxy-piperidin-1-yl)-ethanesulfonic acid (4-{6-amino-5-[1-(2-chloro-3,6-difluoro-phenyl)-ethoxy]-pyridin-3-yl}-phenyl)-amide]
150	CC(Oc1cc(-c2ccc(NS(=O)(=O)CCN(C)C)cc2)cnc1N)c1c(F)ccc(F)c1Cl (stereo not drawn) [Example I-288]
160	CC(Oc1cc(-c2ccc(NS(=O)(=O)CCNC3CC3)cc2)cnc1N)c1c(F)ccc(F)c1Cl (stereo not drawn) [Example I-289, 2-Cyclopropylamino-ethanesulfonic acid (4-{6-amino-5-[1-(2-chloro-3,6-difluoro-phenyl)-ethoxy]-pyridin-3-yl}-phenyl)-amide]
51	CC(Oc1cc(-c2cccc(C(=O)N3CC[C@@H](N)C3)c2)cnc1N)c1c(Cl)ccc(F)c1Cl (stereo partly drawn) [Example I-293]
164	CC(Oc1cc(-c2ccc(NS(=O)(=O)CCNC3CC3)cc2)cnc1N)c1c(Cl)ccc(F)c1Cl (stereo not drawn) [Example I-297, 2-Cyclopropylamino-ethanesulfonic acid (4-{6-amino-5-[1-(2,6-dichloro-3-fluoro-phenyl)-ethoxy]-pyridin-3-yl}-phenyl)-amide]
62	CC(Oc1cc(-c2ccc(NS(=O)(=O)CCN3CC[C@@H](O)C3)cc2)cnc1N)c1c(Cl)ccc(F)c1Cl (stereo partly drawn) [Example I-299]
69	CC(Oc1cc(-c2cccc(C(=O)NC3CCN(C)CC3)c2)cnc1N)c1c(Cl)ccc(F)c1Cl (stereo not drawn) [Example I-313, 3-{6-Amino-5-[1-(2,6-dichloro-3-fluoro-phenyl)-ethoxy]-pyridin-3-yl}-N-(1-methyl-piperidin-4-yl) benzamide]
48	CC(Oc1cc(-c2cccc(C(=O)N3CC[C@H](N)C3)c2)cnc1N)c1c(Cl)ccc(F)c1Cl (stereo partly drawn) [Example I-316, (3-{6-Amino-5-[1-(2,6-dichloro-3-fluoro-phenyl)-ethoxy]-pyridin-3-yl}-phenyl)-((S)-3-amino-pyrrolidin-1-yl)-methanone]
100	CC(Oc1cc(-c2cccc(C(=O)NCCN3CCCC3)c2)cnc1N)c1c(Cl)ccc(F)c1Cl (stereo not drawn) [Example I-319, 3-{6-Amino-5-[1-(2,6-dichloro-3-fluoro-phenyl)-ethoxy]-pyridin-3-yl}-N-(2-pyrrolidin-1-yl-ethyl)-benzamide]
130	CC(Oc1cc(-c2cccc(C(=O)NCCCN3CCCC3)c2)cnc1N)c1c(Cl)ccc(F)c1Cl (stereo not drawn) [Example I-320, 3-{6-Amino-5-[1-(2,6-dichloro-3-fluoro-phenyl)-ethoxy]-pyridin-3-yl}-N-(3-pyrrolidin-1-yl-propyl)-benzamide]
180	CC(Oc1cc(-c2cccc(C(=O)NCCN3CCOCC3)c2)cnc1N)c1c(Cl)ccc(F)c1Cl (stereo not drawn) [Example I-321, 3-{6-Amino-5-[1-(2,6-dichloro-3-fluoro-phenyl)-ethoxy]-pyridin-3-yl}-N-(2-morpholin-4-yl-ethyl)-benzamide]
